Laboratory results: publication PMC4183595, “Study on the Main Components Interaction from Flos Lonicerae and Fructus Forsythiae and Their Dissolution In Vitro and Intestinal Absorption in Rats” (PLoS ONE, 2014)
Read-outs that look alike come from different tables or passages of the source.

Tests used:
[1] = system: Caco-2 cells; assay: In vitro Caco-2 monolayer model, apical to basolateral transport (P app); type: in vitro ADME, human; conditions: for absorption into Caco-2 cells: dipsacoside B, macranthoidin B in product C or A group, arctiin in product C or B group; for P app in product C group, % compared to that in product A group / P app in product C group, % compared with that in product B group: HBSS pH 6.0, apical to basolateral
Method: Caco-2 cells were cultured in high glucose DMEM with 10% fetal bovine serum, 1% nonessential amino acids. Cells were cultured in a humidified atmosphere of 5% CO2 at 37°C. After reaching 80% confluens, Caco-2 cells were harvested with 0.05% trypsin-EDTA solution and seeded on top of CC inserts in 6-well plates, which has a surface area of 4.2 cm^2, at a density of 1.0×10^5 cells/cm^2. The protocols for cell culture in Transwell inserts were similar to those described previously.
Hank’s balanced salt solution (HBSS) was used as the transport buffer for the transport study in Caco-2 cells monolayer model. It was prepared by dissolving 9.5 grams of commercial available HBSS powder in 1000 mL water.
Cell culture experiments were described previously. Briefly, after culture medium was aspirated, the cell monolayers were washed three times with blank HBSS. […] The monolayers were incubated with the blank HBSS for 1 h with 37°C. Thereafter the incubation medium was aspirated. Afterwards, a solution containing the compound was loaded onto the apical side. The amounts of transported compound were measured as a function of time. […] The samples were taken at 0, 1, 2, 3 and 4 h after incubation. At the end of the transport experiment, integrity of the monolayer was monitored by TEER value.

[2] = Rat in vivo pharmacokinetics study after oral administration of product A, B or C; design: species or system Male Sprague-Dawley (SD) rats; AUC 0→t in product C group, increased to % compared to that in product A or B groups: concentration or dose not given beside the values; conditions: for AUC(0-inf) / MRT / Tmax / half-life / Cmax / AUC(0-t): male, Sprague-Dawley, rat, plasma; for AUC(0-inf) / MRT / Tmax / half-life / Cmax: po, 10 mL·kg^−1, rats; for AUC(0-inf) / MRT / Tmax / half-life / AUC(0-t): 10 mL·kg^−1; for half-life: read-out: T 1/2z; for Cmax: mean±SD; for bioavailability in product C group compared with that in product A group / bioavailability in product C group compared with that in product B group / AUC 0→t in product C group compared with product A or B group / AUC(0-t) / AUC 0→t in product C group, increased to % compared to that in product A or B groups: rats; for bioavailability in product C group compared with that in product A group / bioavailability in product C group compared with that in product B group / AUC 0→t in product C group compared with product A or B group / AUC 0→t in product C group, increased to % compared to that in product A or B groups: oral; for AUC 0→t in product C group compared with product A or B group: same dosages administrated; for AUC(0-t): oral product C group; for AUC 0→t in product C group, increased to % compared to that in product A or B groups: product C versus product A or B
Method: Product A (extract mixed with FLJ extract and water, (1∶1, v / v )), product B (extract mixed with FF extract and water, (1∶1, v / v )) and product C (extract mixed with FLJ and FF extracts, (1∶1, v / v )) were given to oral administration to rats, respectively.
Male SD rats (∼250 g) were kept in an environmentally controlled breeding room (temperature: 20±2°C, relative humidity: 60±5%) for 1 week. […] The rats were randomly divided into three groups with no less than six rats in each group to receive various administrations at a single oral dose (10 mL·kg^−1) by gastric gavage. […] Subsequently, plasma was prepared by centrifugation at 1,816×g, 4°C for 7 min, and immediately analyzed or stored at −70°C for further analysis.
The main pharmacokinetic parameters including the peak plasma concentration (C max), the time to C max (T max), the AUC from 0 to infinity (AUC 0–∞), the AUC form 0 to time (AUC 0–t), mean residence time (MRT), and terminal elimination half-life (T 1/2z) were calculated by the non-compartmental analysis of plasma concentration vs. time data using the “DAS 2.1.1” software (Mathematical Pharmacology Professional Committee of China, Shanghai, China).

[3] = single oral dose 10 mL·kg^−1 of product A (FLJ extract and water 1:1)
[4] = single oral dose 10 mL·kg^−1 of product B (FF extract and water 1:1)
[5] = single oral dose 10 mL·kg^−1 of product C (FLJ and FF extracts 1:1)

P app in product C group, % compared to that in product A group ([1]; Caco-2 monolayer) [%] | P app in product C group, % compared with that in product B group ([1]; Caco-2 monolayer) [%] | AUC(0-inf) ([2]; oral product A) [ng·h/mL] | MRT ([2]; oral product A) [h] | Tmax ([2]; oral product A) [h] | half-life ([2]; oral product A) [h] | AUC(0-inf) ([2]; oral product B) [ng·h/mL] | MRT ([2]; oral product B) [h] | half-life ([2]; oral product B) [h] | AUC(0-inf) ([2]; oral product C) [ng·h/mL] | MRT ([2]; oral product C) [h] | Tmax ([2]; oral product C) [h] | half-life ([2]; oral product C) [h] | Cmax [2, 3] [ng/mL] | Cmax [2, 4] [ng/mL] | Cmax [2, 5] [ng/mL] | bioavailability in product C group compared with that in product A group [2] | bioavailability in product C group compared with that in product B group [2] | Tmax ([2]; oral product B) [h] | AUC(0-t) [2] [ng·h/mL] | SMILES | also measured
293 | – | 240 | 10.8 | 0.233 | 10 ± 1.27 | – | – | – | 28.6 | 7.72 | 0.25 | 6.85 ± 1.13 | 5.09 ± 2.46 | – | 2.3 ± 1 | – | – | – | – | O=c1c(-c2ccc(O)cc2)coc2cc(O)cc(O)c12 [Genistein] | AUC 0→t in product C group compared with product A or B group [2]: lower significantly
125 | 256 | 144 | 8.22 | 0.167 | 4.62 ± 0.877 | 65 | 7 | 5.27 ± 0.93 | 52.4 | 7.12 | 0.167 | 4.67 ± 1.05 | 15.6 ± 4.39 | 12.6 ± 2.23 | 8.02 ± 0.493 | opposite | opposite | 0.167 | – | O=c1c(O)c(-c2ccc(O)c(O)c2)oc2cc(O)cc(O)c12 [Quercetin] | –
165 | – | 0.63 | – | 0.267 | 8.03 ± 0.305 | – | – | – | 0.822 | – | 0.333 | 9.2 ± 0.455 | 0.055 ± 0.0154 | – | 0.0753 ± 0.0285 | – | – | – | 0.548 | O=c1c(-c2ccc(O)cc2)coc2cc(O[C@@H]3O[C@H](CO)[C@@H](O)[C@H](O)[C@H]3O)cc(O)c12 [Genistin] | AUC 0→t in product C group, increased to % compared to that in product A or B groups [2]: 131%
131 | – | 4.32 | 8.15 | 0.167 | 7.67 ± 0.263 | – | – | – | 6.26 | 11.3 | 0.167 | 11.6 ± 1.72 | 0.441 ± 0.166 | – | 0.551 ± 0.207 | – | – | – | 4.17 | O=c1c(O[C@@H]2O[C@H](CO)[C@@H](O)[C@H](O)[C@H]2O)c(-c2ccc(O)cc2)oc2cc(O)cc(O)c12 [Astragalin] | AUC 0→t in product C group, increased to % compared to that in product A or B groups [2]: 145%
174 | – | 2.97 | – | 0.167 | 6.38 ± 0.22 | – | – | – | 5 | – | 0.167 | 9.65 ± 1.43 | 1.26 ± 0.655 | – | 2.48 ± 1.34 | – | – | – | 4.76 | O=c1cc(-c2ccc(O)c(O)c2)oc2cc(O[C@@H]3O[C@H](CO)[C@@H](O)[C@H](O)[C@H]3O)cc(O)c12 [Luteoloside] | AUC 0→t in product C group, increased to % compared to that in product A or B groups [2]: 137%
– | – | – | – | – | – | 32 | 4.1 | 3.37 ± 0.21 | 67.8 | 7.57 | 0.167 | 5.25 ± 0.472 | – | 11.9 ± 4.36 | 32.3 ± 7.57 | – | – | 0.167 | 17.1 | COc1cc(C2OCC3C(c4ccc(O[C@@H]5O[C@H](CO)[C@@H](O)[C@H](O)[C@H]5O)c(OC)c4)OCC23)ccc1O (stereo partly drawn) [Pinoresinol-β-D-glucoside] | P app, product C group versus product B group ([1]; Caco-2 monolayer): no significant difference; AUC 0→t in product C group, increased to % compared to that in product A or B groups [2]: 299%

More lines, now with the values behind:

SMILES | P app in product C group, % compared to that in product A group ([1]; Caco-2 monolayer) [%] | P app in product C group, % compared with that in product B group ([1]; Caco-2 monolayer) [%] | AUC(0-inf) ([2]; oral product A) [ng·h/mL] | MRT ([2]; oral product A) [h] | Tmax ([2]; oral product A) [h] | half-life ([2]; oral product A) [h] | AUC(0-inf) ([2]; oral product B) [ng·h/mL] | MRT ([2]; oral product B) [h] | half-life ([2]; oral product B) [h] | AUC(0-inf) ([2]; oral product C) [ng·h/mL] | MRT ([2]; oral product C) [h] | Tmax ([2]; oral product C) [h] | half-life ([2]; oral product C) [h] | Cmax [2, 3] [ng/mL] | Cmax [2, 4] [ng/mL] | Cmax [2, 5] [ng/mL] | bioavailability in product C group compared with that in product A group [2] | bioavailability in product C group compared with that in product B group [2] | Tmax ([2]; oral product B) [h] | AUC(0-t) [2] [ng·h/mL] | also measured
COc1ccc(C[C@H]2COC(=O)[C@@H]2Cc2ccc(O[C@@H]3O[C@H](CO)[C@@H](O)[C@H](O)[C@H]3O)c(OC)c2)cc1OC [arctiin] | – | – | – | – | – | – | – | – | – | – | – | – | – | – | – | – | – | – | – | – | absorption into Caco-2 cells [1]: might not be absorbed well
C[C@@H]1O[C@@H](OC[C@H]2O[C@@H](Oc3c(-c4ccc(O)c(O)c4)oc4cc(O)cc(O)c4c3=O)[C@H](O)[C@@H](O)[C@@H]2O)[C@H](O)[C@H](O)[C@H]1O [Rutin] | 213 | 210 | 10.3 | 5.02 | 0.167 | 7.93 ± 0.837 | 30.5 | 4.35 | 8.17 ± 1.55 | 22.8 | 4.88 | 0.167 | 7.55 ± 0.613 | 4.08 ± 1.99 | 14.6 ± 1.65 | 19.8 ± 3.93 | significantly higher | no significant difference | – | – | –
O=c1c(O[C@@H]2O[C@H](CO)[C@H](O)[C@H](O)[C@H]2O)c(-c2ccc(O)c(O)c2)oc2cc(O)cc(O)c12 [Hyperoside] | 129 | 195 | 9.89 | 7.27 | 0.167 | 6.83 ± 1.63 | 10.4 | 6.82 | 6.68 ± 0.487 | 24.6 | 6.45 | 0.167 | 7.05 ± 0.688 | 5.25 ± 0.859 | 9.68 ± 4.39 | 22.1 ± 1.9 | significantly higher | significantly higher | – | – | –
O=C(O)[C@]1(O)C[C@@H](O)[C@@H](O)[C@H](O)C1 [Quinic acid] | 301 | 24.0 | – | 3.98 | 0.35 | 3.82 ± 0.28 | – | 4.5 | 4.1 ± 0.628 | – | 7.35 | 0.167 | 5.5 ± 1.27 | – | 358 ± 157 | – | no significant difference | higher significantly | 0.3 | – | –
COc1cc(C[C@H]2C(=O)OC[C@@H]2Cc2ccc(OC)c(OC)c2)ccc1O [Arctigenin] | – | 110 | – | – | – | – | 4.44 | 9.33 | 10.4 ± 0.36 | 3.99 | 9.4 | 0.333 | 8.9 ± 0.898 | – | 0.895 ± 0.166 | 0.231 ± 0.144 | – | – | 0.333 | – | AUC 0→t in product C group compared with product A or B group [2]: lower significantly
O=C(O)/C=C/c1ccc(O)c(O)c1 [Caffeic acid] | 275 | 247 | 1190 | 6.65 | 0.167 | 6 ± 1.1 | 683 | 5.57 | 5.53 ± 0.893 | 737 | 6.28 | 0.167 | 6.53 ± 1.02 | 181 ± 17.6 | 91.1 ± 6.74 | 98.1 ± 16.2 | significantly lower | no significant difference | 0.167 | – | –
C[C@@H]1O[C@@H](O[C@H]2[C@H](O[C@H]3CC[C@@]4(C)[C@@H](CC[C@]5(C)[C@@H]4CC=C4[C@@H]6CC(C)(C)CC[C@]6(C(=O)O[C@@H]6O[C@H](CO[C@@H]7O[C@H](CO)[C@@H](O)[C@H](O)[C@H]7O)[C@@H](O)[C@H](O)[C@H]6O)CC[C@]45C)[C@]3(C)CO)OC[C@H](O)[C@@H]2O)[C@H](O)[C@H](O)[C@H]1O [dipsacoside B] | – | – | – | – | – | – | – | – | – | – | – | – | – | – | – | – | – | – | – | – | absorption into Caco-2 cells [1]: might not be absorbed well
